Assay results taken from ChEMBL document CHEMBL1201862, “PubChem BioAssay data set” (2004).
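Step 1: Grow cells in 96-well plates. Step 2: Expose to compound for 48 hours at 5 concentrations. Step 3: Interpolate endpoints linearly; if unreached, use highest concentration. GI50 = concentration required for 50% inhibition of growth.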 Active and inactive are the calls of the source. No stated cut-off is given here; in the data, active = GI50 up to about 1.1 µM and inactive = higher.

Key:
Test in all cases: growth of human tumour cells (NCI), 48 h
[1] = test system: 786-0
[2] = test system: A498
[3] = test system: A549
[4] = test system: ACHN
[5] = test system: BT-549
[6] = test system: CAKI-1
[7] = test system: CCRF-CEM
[8] = test system: COLO 205
[9] = test system: DU-145
[10] = test system: EKVX
[11] = test system: HCC 2998
[12] = test system: HCT-116
[13] = test system: HCT-15
[14] = test system: HL-60
[15] = test system: HOP-62
[16] = test system: HOP-92
[17] = test system: HT-29
[18] = test system: Hs-578T
[19] = test system: IGROV-1
[20] = test system: K562
[21] = test system: KM12
[22] = test system: LOX IMVI
[23] = test system: M14
[24] = test system: MCF7
[25] = test system: MDA-MB-231
[26] = test system: MDA-MB-435
[27] = test system: MDA-N
[28] = test system: MOLT-4
[29] = test system: Malme-3M
[30] = test system: NCI-H226
[31] = test system: NCI-H23
[32] = test system: NCI-H460
[33] = test system: NCI-H522
[34] = test system: NCI/ADR-RES
[35] = test system: OVCAR-3
[36] = test system: OVCAR-4
[37] = test system: OVCAR-5
[38] = test system: OVCAR-8
[39] = test system: PC-3
[40] = test system: RPMI-8226
[41] = test system: RXF 393
[42] = test system: SF-268
[43] = test system: SF-295
[44] = test system: SF-539
[45] = test system: SK-MEL-28
[46] = test system: SK-MEL-2
[47] = test system: SK-MEL-5
[48] = test system: SK-OV-3
[49] = test system: SN12C
[50] = test system: SNB-19
[51] = test system: SNB-75
[52] = test system: SR
[53] = test system: SW-620
[54] = test system: T47D
[55] = test system: TK-10
[56] = test system: U-251
[57] = test system: UACC-257
[58] = test system: UACC-62
[59] = test system: UO-31
[60] = test system: DMS-273
[61] = test system: KM-20L2
[62] = test system: LXFL 529
[63] = test system: M19-MEL
[64] = test system: SNB-78
[65] = test system: DMS-114

Measured: GI50

CCOC(=O)Nc1nc(-c2ccccc2)c(C)s1
inactive: [1] > 100 µM | [2] > 100 µM | [3] > 100 µM | [4] > 100 µM | [5] 53.8 µM | [6] > 100 µM | [7] 31.5 µM | [8] 96.6 µM | [9] 52.6 µM | [10] 23.7 µM | [11] > 100 µM | [12] 88.7 µM | [14] 11.1 µM | [15] > 100 µM | [16] 11.7 µM | [17] 48.6 µM | [18] > 100 µM | [19] 44.2 µM | [20] 18.3 µM | [21] > 100 µM | [22] > 100 µM | [23] > 100 µM | [24] 56.4 µM | [25] > 100 µM | [26] > 100 µM | [27] > 100 µM | [28] 7.35 µM | [29] > 100 µM | [30] > 100 µM | [31] 81.1 µM | [32] 64 µM | [33] 28 µM | [34] 59 µM | [35] 98.9 µM | [36] 81.5 µM | [37] > 100 µM | [38] > 100 µM | [39] > 100 µM | [40] > 100 µM | [41] > 100 µM | [42] > 100 µM | [43] > 100 µM | [44] > 100 µM | [45] > 100 µM | [46] > 100 µM | [47] > 100 µM | [48] > 100 µM | [49] > 100 µM | [50] > 100 µM | [51] 31.8 µM | [52] 49.9 µM | [53] > 100 µM | [54] 47.3 µM | [55] > 100 µM | [56] > 100 µM | [57] > 100 µM | [58] > 100 µM | [59] 60 µM
40.9 µM: [13]

CCC(CO)Nc1nc2c(c(=O)n(C)c(=O)n2C)n1CCO (stereo not drawn)
> 100 µM: [13]
inactive: [1] > 100 µM | [3] > 100 µM | [4] > 100 µM | [8] > 100 µM | [60] > 100 µM | [10] > 100 µM | [11] > 100 µM | [12] > 100 µM | [16] > 100 µM | [17] > 100 µM | [19] > 100 µM | [20] > 100 µM | [61] > 100 µM | [21] > 100 µM | [62] > 100 µM | [63] > 100 µM | [28] > 100 µM | [29] > 100 µM | [30] > 100 µM | [31] > 100 µM | [35] > 100 µM | [37] > 100 µM | [38] > 100 µM | [40] > 100 µM | [41] > 100 µM | [42] > 100 µM | [43] > 100 µM | [44] > 100 µM | [45] > 100 µM | [46] > 100 µM | [47] > 100 µM | [48] > 100 µM | [49] > 100 µM | [50] > 100 µM | [51] 48.9 µM | [64] 4.91 µM | [52] > 100 µM | [53] > 100 µM | [55] > 100 µM | [56] > 100 µM | [57] > 100 µM | [58] > 100 µM | [59] > 100 µM

COC(=O)[C@@H]1C=C[C@H](OC2OC(COC(C)=O)C(OC(C)=O)C(OC(C)=O)C2OC(C)=O)n2c(=O)c3ccccc3c(=O)n21 (stereo partly drawn)
inactive: [1] 16.1 µM | [2] 12.2 µM | [3] 21.4 µM | [4] 11.7 µM | [5] 4.8 µM | [6] 3.45 µM | [7] 4.14 µM | [8] 8.65 µM | [9] 16.1 µM | [10] 16.5 µM | [11] 16.1 µM | [12] 10.9 µM | [14] 3.95 µM | [15] 17.9 µM | [16] 10.1 µM | [17] 7.21 µM | [18] 27.7 µM | [19] 18.2 µM | [20] 5.66 µM | [21] 10.7 µM | [22] 10.9 µM | [23] 15.3 µM | [24] 8.61 µM | [25] > 10 µM | [26] 9.16 µM | [27] > 10 µM | [28] 11.8 µM | [29] 16.9 µM | [30] 19.7 µM | [31] 18.6 µM | [32] 12.3 µM | [33] 1.68 µM | [34] 19.8 µM | [35] 10.4 µM | [36] 16.6 µM | [37] 16 µM | [38] 16.5 µM | [39] 6.62 µM | [40] 4.66 µM | [41] 6.05 µM | [42] > 10 µM | [43] 18.8 µM | [44] 15.7 µM | [45] 13.2 µM | [46] 9.16 µM | [47] 14.7 µM | [48] 14.6 µM | [49] > 10 µM | [50] 19.4 µM | [51] 6.71 µM | [52] 4.82 µM | [53] 12.4 µM | [54] 4.7 µM | [55] 2.91 µM | [56] 12 µM | [57] 17.2 µM | [58] 9.93 µM | [59] 14.4 µM
10.8 µM: [13]

COc1cc2c(cc1OC)C1C(=O)c3c(O)cc4c(c3OC1CO2)C=CC(C)(C)O4 (stereo not drawn)
active: [4] 0.748 µM | [65] 366 nM
inactive: [2] 21.6 µM | [3] 2.25 µM | [6] 21.7 µM | [12] 10.9 µM | [15] 14.8 µM | [16] 18.2 µM | [17] 27.8 µM | [19] 19 µM | [61] 29.5 µM | [21] 9.44 µM | [22] 5.89 µM | [62] 7.03 µM | [23] 23.5 µM | [63] 13.8 µM | [29] 20.6 µM | [32] 20.8 µM | [33] 1.28 µM | [35] 13.5 µM | [37] 84.1 µM | [42] 27.6 µM | [44] 18.2 µM | [45] 35.6 µM | [46] 18.8 µM | [47] 1.17 µM | [48] 22.3 µM | [49] 27.2 µM | [51] 26.7 µM | [64] 31.9 µM | [52] > 100 µM | [53] 23.5 µM | [55] 32.8 µM | [56] 12.3 µM | [58] 12.9 µM | [59] 3.01 µM
19.1 µM: [13]

O=C1OC(C2Cc3ccc4c(c3C2=O)CCC4)c2ccccc21 (stereo not drawn)
inactive: [1] 40.7 µM | [2] 60.5 µM | [3] 50 µM | [4] 38.2 µM | [5] 42.1 µM | [6] > 100 µM | [7] 46.9 µM | [8] 20.7 µM | [9] 91.8 µM | [10] 51.2 µM | [11] 37.4 µM | [12] 45.6 µM | [14] 27.4 µM | [15] > 100 µM | [16] 56.2 µM | [17] 52.8 µM | [18] 36.1 µM | [19] 82.4 µM | [20] 43.3 µM | [21] 29.7 µM | [22] 34.9 µM | [23] 51.1 µM | [24] 50.1 µM | [25] > 100 µM | [26] 40.5 µM | [27] 40.3 µM | [28] 30.9 µM | [29] 94.4 µM | [30] 26.1 µM | [31] 55.2 µM | [32] 50.9 µM | [33] > 100 µM | [34] 48.2 µM | [35] 28.4 µM | [36] 38.1 µM | [37] 85.9 µM | [38] 56.9 µM | [39] 30.5 µM | [40] 25.3 µM | [41] 37.7 µM | [42] 42.9 µM | [43] 59.6 µM | [44] 28.2 µM | [45] 67.1 µM | [46] 64.9 µM | [47] 43.1 µM | [48] > 100 µM | [49] 36 µM | [50] 52.4 µM | [51] 46 µM | [52] 38.8 µM | [53] 54.5 µM | [54] 54.6 µM | [55] > 100 µM | [56] 38.8 µM | [57] 46.8 µM | [58] 42.2 µM | [59] 45.4 µM
39.1 µM: [13]
